{"source": "patent US20230270893A1", "about": "“GALLIUM-LABELED GASTRIN ANALOGUE AND USE IN A METHOD OF IMAGING CCKB-RECEPTOR-POSITIVE TUMORS OR CANCERS” (DEBIOPHARM INTERNATIONAL S.A., priority 2020, published 2023)", "key": {"CCK2R [1]": {"test_system": "T1, CCK2R", "T1 construct": "from tissue; host or cells: organs of naive CD1 mice (stomach and others), in vivo injection with ex vivo gamma counting", "assay": "Peptide blocking experiment (co-injection of blocking dose of PPF11N) in the ex vivo biodistribution study", "design": "species or system CD1 mice", "conditions": "CD1, stomach, iv, total radioactivity, 60 min post-injection, co-injected PPF11N 40 μg per mouse (1.3 mg/kg), read-out: Concentration in the stomach with peptide blocking dose", "method": "(§1) Ex vivo biodistribution study. Female (FIG. 1A) and male (FIG. 1B) naïve adult CD1 mice (immunocompetent) were injected with [^68Ga]Ga-PPF11N ((0.19±0.04) MBq, 0.04 μg, 1.3 μg/kg). Mice were sacrificed at 5, 15, 30, 60, 120 and 240 min post-injection (N=4 each). A control group of mice of each sex was co-injected with a blocking dose of PPF11N peptide (40 μg, 1.3 mg/kg) and sacrificed at 60 min post-injection. Organs (blood, bone, brain, colon, gonad, kidney, liver, lung, muscle, pancreas, stomach) were weighted and assessed for activity concentration over time. Ex vivo biodistribution in all resected tissues was computed as the percentage of injected dose per gram of tissue (% ID/g).\n(§2) Immunocompetent CD1 mice (N=28 males and N=28 females on study, N=3 males and N=3 females spare; males 9 weeks old, females 5 weeks old at delivery) were acclimatized for 7 days, inspected daily and weighed on the day of injection. For each sex, mice were randomly allocated to 7 groups (N=4 mice per group) and each group was injected (bolus i.v. route into a laterial tail vein) with [^68Ga]Ga-PPF11N peptide ((0.19±0.04) MBq in 0.15 mL; (0.039±0.02) μg peptide in non-blocked groups. Following radiolabeling, each product batch was assessed by iTLC and HPLC to ensure the material met the target criteria. For the blocked group, 38±1 μg of peptide was injected. At 5 min, 15 min, 30 min, 1 h, 2 h and 4 h post-injection mice (n=4 per time point for each sex) were sacrificed by cervical dislocation and tissues (blood, bone, brain, colon, gonad, kidney, liver, lung, muscle, pancreas, stomach) were resected, weighed and the radioactivity was counted with a gamma-counter along with calibration standards (dilution series in triplicate). The study design is depicted in the table below.\n(§3) The activity of each collected tissue was measured in units of counts per min (CPM). […] Measured values were decay corrected and adjusted to account for background radiation"}, "CCK2R [2]": {"target": "T2, CCK2R (Mus musculus, UniProt P56481)", "T2 construct": "from tissue; host or cells: organs of naive CD1 mice (stomach and others), in vivo injection with ex vivo gamma counting", "T2 sequence (P56481 1-453)": "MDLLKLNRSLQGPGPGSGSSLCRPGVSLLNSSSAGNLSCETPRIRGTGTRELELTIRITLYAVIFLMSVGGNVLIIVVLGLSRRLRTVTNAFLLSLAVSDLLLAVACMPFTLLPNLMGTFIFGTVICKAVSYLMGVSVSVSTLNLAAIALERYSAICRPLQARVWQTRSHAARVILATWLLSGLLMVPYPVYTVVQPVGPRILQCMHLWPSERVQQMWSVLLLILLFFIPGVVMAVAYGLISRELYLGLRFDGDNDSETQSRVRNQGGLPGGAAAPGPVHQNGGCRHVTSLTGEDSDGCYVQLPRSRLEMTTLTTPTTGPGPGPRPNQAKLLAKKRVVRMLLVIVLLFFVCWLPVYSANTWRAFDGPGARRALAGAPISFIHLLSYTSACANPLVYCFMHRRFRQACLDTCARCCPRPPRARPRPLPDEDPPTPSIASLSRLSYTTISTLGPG", "assay": "Peptide blocking experiment (co-injection of blocking dose of PPF11N) in the ex vivo biodistribution study", "design": "species or system CD1 mice", "conditions": "male and female mice, 60 min post-injection, PPF11N 40 μg per mouse", "method": "as §1, §2, §3"}, "[3]": {"assay": "Ex vivo biodistribution study in naïve adult CD1 mice", "conditions": "for tissue uptake at 1 h: CD1, mouse, iv, 0.04 ug, total radioactivity; for tissue uptake at 1 h / Retention in stomach: 60 min post-injection", "method": "as §1, §2\nThe activity of each collected tissue was measured in units of counts per min (CPM). Triplicate aliquots of serial dilutions of the radiotracer were also assayed in the gamma counter in order to calculate a conversion factor to units of activity (% ID/g). Measured values were decay corrected and adjusted to account for background radiation"}}, "note": "Read-outs that look alike come from different tables or passages of the source."}
{"smiles": "CCCC[C@H](NC(=O)[C@H](Cc1c[nH]c2ccccc12)NC(=O)CNC(=O)[C@H](Cc1ccc(O)cc1)NC(=O)[C@H](C)NC(=O)[C@@H](CCC(=O)O)NC(=O)[C@@H](CCC(=O)O)NC(=O)[C@@H](CCC(=O)O)NC(=O)[C@@H](CCC(=O)O)NC(=O)[C@@H](CCC(=O)O)NC(=O)[C@@H](CCC(=O)O)NC(=O)CN1CCN(CC(=O)O)CCN(CC(=O)O)CCN(CC(=O)O)CC1)C(=O)N[C@@H](CC(=O)O)C(=O)N[C@@H](Cc1ccccc1)C(N)=O", "note": "[^68Ga-PPF11N, ^68Ga-Y-DGlu-DGlu-DGlu-DGlu-DGlu-DGlu-Ala-Tyr-Gly-Trp-Nle-Asp-Phe-NH2, metal not drawn]", "values": [{"measurement": "tissue uptake at 1 h", "setting": "CCK2R [1]; female mice", "result": "0.19 ± 0.02", "unit": "%ID/g"}, {"measurement": "tissue uptake at 1 h", "setting": "CCK2R [1]; male mice", "result": "0.32 ± 0.07", "unit": "%ID/g"}, {"measurement": "Effect of peptide blocking dose on kidney exposure", "setting": "CCK2R [2]", "result": "unable to reduce kidney exposure"}, {"measurement": "tissue uptake at 1 h", "setting": "[3]; blood, female mice, i.v., 0.04 μg peptide, read-out: Blood concentration", "result": "0.4 ± 0.12", "unit": "%ID/g"}, {"measurement": "tissue uptake at 1 h", "setting": "[3]; blood, male mice, i.v., 0.04 μg peptide, read-out: Blood concentration", "result": "0.46 ± 0.35", "unit": "%ID/g"}, {"measurement": "tissue uptake at 1 h", "setting": "[3]; kidney, female mice, read-out: Retention in kidneys", "result": "2.98 ± 0.53", "unit": "%ID/g"}, {"measurement": "tissue uptake at 1 h", "setting": "[3]; kidney, male mice, read-out: Retention in kidneys", "result": "3.38 ± 0.67", "unit": "%ID/g"}, {"measurement": "tissue uptake at 1 h", "setting": "[3]; muscle, female mice, read-out: Activity concentration in muscle", "result": "0.16 ± 0.09", "unit": "%ID/g"}, {"measurement": "tissue uptake at 1 h", "setting": "[3]; muscle, male mice, read-out: Activity concentration in muscle", "result": "0.1 ± 0.03", "unit": "%ID/g"}, {"measurement": "tissue uptake at 1 h", "setting": "[3]; stomach, female mice, read-out: Retention in stomach", "result": "1.71 ± 0.56", "unit": "%ID/g"}, {"measurement": "tissue uptake at 1 h", "setting": "[3]; stomach, male mice, read-out: Retention in stomach", "result": "1.93 ± 0.18", "unit": "%ID/g"}, {"measurement": "Retention in stomach", "setting": "[3]; female mice", "result": "1.71±0.56", "unit": "% ID/g"}, {"measurement": "Clearance from organs", "setting": "[3]; male and female mice, 5 to 240 min post-injection", "result": "rapid clearance from all organs except for kidneys and stomach"}, {"measurement": "Retention in stomach", "setting": "[3]; male mice", "result": "1.93±0.18", "unit": "% ID/g"}]}
